Laboratory results reported in publication PMC11149917, “Translational and Therapeutic Evaluation of RAS-GTP Inhibition by RMC-6236 in RAS-Driven Cancers” (Cancer Discovery, 2024).
“And” between values parts separate entries of the source, which are not always exact repeats. Equal entries are not always repeated. Where two headings read alike, the source gives them in different places.

Columns and labels:
[1] = test system: DUSP6 mRNA in NCI-H2122 xenograft tumors; assay: In vivo PD by DUSP6 qPCR; design: species or system mouse
Procedure: (§1) Tumor-bearing animals were randomized and assigned into groups (n = 1–10/group). The vehicle at 10 mL/kg or RMC-6236 at indicated doses was administered via oral gavage daily, and animals were treated for 28 days, or up to 90 days if PFS was being assessed. […] For single-dose PKPD study, mice were randomized and assigned into groups (n = 3/dose/time point). A single dose of RMC-6236 was administered orally at either 3, 10, or 25 mg/kg. Blood and tissues, including the tumor, brain, colon, ear skin, and muscle, were harvested at indicated time points. Whole blood was collected in K2EDTA Microtainer tubes, incubated for 5 minutes, and snap-frozen in liquid nitrogen. The tissue was either fixed in 10% formalin or snap-frozen in liquid nitrogen for further analysis.
(§2) RNA was extracted from at least 20 mg of tissue using an RNeasy Mini Kit (Qiagen, 74104) and a High-Throughput Tissue grinder following the manufacturer's protocol. Reverse transcription was carried out using High-Capacity cDNA Reverse Transcription Kit (ABI, 4368814) according to the manufacturer's protocol. The cDNA product was used for qPCR analysis using TaqMan Gene-Expression Master Mix (ABI, 4369016). TaqMan primer probes specific to DUSP6 (human—Hs00737962_m1, murine—Mm00518185_m1, FAM-MGB) and 18S (RNA18S1; human—Hs99999901_s1, murine—Mm03928990_g1, FAM-MGB, used as an internal control gene) were used to detect the levels from each sample in duplicates using a 10 µL final reaction volume in a 384-well clear optical reaction plate. For qPCR, Ct values of DUSP6 and 18S were obtained for analysis. DUSP6 Ct value was normalized to 18S, and then the mean relative mRNA expression levels of each group were normalized to the vehicle control group. Values were plotted as relative change in mRNA expression compared with vehicle. Means ± SEM were shown.

[2] = test system: Dusp6 mRNA in colon; assay: In vivo PD by Dusp6 qPCR and PK/PD relationship; design: species or system mouse; conditions: for % inhibition of DUSP6 vs control: sheet colon
Procedure: as §1, §2
Concentrations of RMC-6236 in tumor or normal tissues and percentage of DUSP6 inhibition as compared with the vehicle control from individual animals were collected and analyzed post a single dose of RMC-6236 ranging from 0.3 to 100 mg/kg (Supplementary Table S6). A 3-parameter sigmoidal exposure–response model was fitted to the data in GraphPad Prism to derive EC50 and EC90 values.

[3] = Mouse PK/PD modeling; conditions: mouse, whole blood, oral
From the text: (§3) Akaike information criterion values were used to discriminate between model structure and fit. Individual data points (n = 3/time point) were averaged from sparsely sampled PK/PD data to create mean profiles, which were used for subsequent modeling. A graphical representation of the model and all parameter estimates and equations can be found in the Supplementary Information (Supplementary Fig. S6; Supplementary Table S8l Supplementary Method).
(§4) For PK modeling, whole blood PK data from single or repeat dose administration of 25 or 40 mg/kg RMC-6236 to NCI-H441 xenograft tumor-bearing mice were used (Supplementary Table S9). RMC-6236 blood PK was best described using a one-compartment model with first-order absorption and elimination. Because intravenous data were not included in the modeling, the model was parameterized in terms of apparent clearance (CL/F) and volume of distribution (V/F), where F is the oral bioavailability.
(§5) The mouse whole-blood PK model was expanded to include tumor PK/PD by incorporating blood–plasma partitioning, plasma protein binding, and tumor partitioning and PD parameters. PK/PD modeling was conducted using data from NCI-H441 xenograft tumor-bearing mice due to greater data availability. RMC-6236 tumor concentrations and DUSP6 mRNA expression were measured in tumor tissue after single or repeat dose administration of 25 or 40 mg/kg to NCI-H441 xenograft tumor-bearing mice (Supplementary Table S9). […] The PD response was modeled using DUSP6 biomarker data from NCI-H441 mouse xenograft studies. […] As such, an indirect response model was used to describe the suppression of DUSP6 expression, assuming zero-order production, first-order degradation, and maximal inhibition fixed at 100%.
(§6) Tumor PK and PD were added to the model by incorporating blood-plasma partitioning, plasma protein binding, and tumor partitioning and PD parameters.
(§7) The unbound plasma concentrations were used as a driving function to predict total tumor concentrations. Separate tumor partitioning rates were fit to match the observed extended half-life of RMC-6236. The tumor partitioning rates were manually adjusted to best fit repeat dose data as this was assumed to be more relevant for clinical predictions. It is important to note that the kinetic rate constant for removal of drug from the tumor incorporates a non-identifiable tumor fraction unbound variable, since only unbound drug should partition across cell membranes.

[4] = test system: DUSP6 mRNA in NCI-H441 xenograft tumors; assay: Mouse PK/PD modeling
From the text: as §3, §4, §5, §6, §7

[5] = Plasma protein binding; format: in vitro ADME; conditions: human, humans
[6] = Mouse PKPD Model Parameters, apparent value, NCI-H441 #8 Single and Repeat Dose fit simultaneously
[7] = Mouse PKPD Model Parameters, Manually fit to repeat dose data
[8] = Mouse PKPD Model Parameters, NCI-H441 #8 Single and Repeat Dose fit simultaneously
[9] = NCI-H441 PKPD model, Manually Fit

Compound: CCn1c(-c2cc(N3CCN(C)CC3)cnc2[C@H](C)OC)c2c3cc(ccc31)-c1csc(n1)C[C@H](NC(=O)[C@H]1C[C@@H]1C)C(=O)N1CCC[C@H](N1)C(=O)OCC(C)(C)C2 [RMC-6236]
- DUSP6 mRNA(% normalized to control) ([1]; NCI-H2122 (25 mg/kg x 7d), 1h): 0.8%
- DUSP6 mRNA(% normalized to control) ([1]; NCI-H2122 (25 mg/kg x 7d), 8h): 0.337%
- DUSP6 mRNA(% normalized to control) ([1]; NCI-H2122 (25 mg/kg x 7d), 24h): 0.8%
- DUSP6 mRNA(% normalized to control) ([1]; NCI-H2122 (25 mg/kg x 7d), 48h): 6.3%
- DUSP6 mRNA(% normalized to control) ([1]; NCI-H2122 (25 mg/kg), 1h): 20.6%
- DUSP6 mRNA(% normalized to control) ([1]; NCI-H2122 (25 mg/kg), 8h): 0.187%
- DUSP6 mRNA(% normalized to control) ([1]; NCI-H2122 (25 mg/kg), 24h): 3.4%
- DUSP6 mRNA(% normalized to control) ([1]; NCI-H2122 (25 mg/kg), 48h): 10.6%
- EC50 ([2]; Mus musculus, colon of tumor-bearing BALB/c nude mice, read-out: EC50, inhibition of Dusp6 expression vs RMC-6236 concentration (PK/PD relationship)): 1.71 µM
- EC90 ([2]; Mus musculus, colon of tumor-bearing BALB/c nude mice, read-out: EC90, inhibition of Dusp6 expression vs RMC-6236 concentration (PK/PD relationship)): 15.4 µM
- shift in EC50 and EC90 vs tumor cells of Capan-2, NCI-H441, and HPAC models ([2]; colon from tumor-bearing animals): ≥ 10 fold
- % inhibition of DUSP6 vs control ([2]; Capan-2, Capan-2 #3_PHA 2023, 3 mg/kg, 2h): 37.2913% and 60.5871% and 58.0501%
- % inhibition of DUSP6 vs control ([2]; Capan-2, Capan-2 #3_PHA 2023, 3 mg/kg, 4h): 61.1298% and 32.7904% and 59.3384%
- % inhibition of DUSP6 vs control ([2]; Capan-2, Capan-2 #3_PHA 2023, 3 mg/kg, 8h): 84.3228% and 73.9972% and 54.4116%
- % inhibition of DUSP6 vs control ([2]; Capan-2, Capan-2 #3_PHA 2023, 3 mg/kg, 24h): 0%
- % inhibition of DUSP6 vs control ([2]; Capan-2, Capan-2 #3_PHA 2023, 10 mg/kg, 2h): 57.1687% and 58.484% and 80.9648%
- % inhibition of DUSP6 vs control ([2]; Capan-2, Capan-2 #3_PHA 2023, 10 mg/kg, 4h): 72.1309% and 81.8034% and 73.7254%
- % inhibition of DUSP6 vs control ([2]; Capan-2, Capan-2 #3_PHA 2023, 10 mg/kg, 8h): 81.8664% and 78.1343% and 82.9039%
- % inhibition of DUSP6 vs control ([2]; Capan-2, Capan-2 #3_PHA 2023, 10 mg/kg, 24h): 0% and 4.621%
- % inhibition of DUSP6 vs control ([2]; Capan-2, Capan-2 #3_PHA 2023, 25 mg/kg, 2h): 88.2825% and 80.9648% and 65.0894%
- % inhibition of DUSP6 vs control ([2]; Capan-2, Capan-2 #3_PHA 2023, 25 mg/kg, 4h): 67.0868% and 83.3714% and 61.2642%
- % inhibition of DUSP6 vs control ([2]; Capan-2, Capan-2 #3_PHA 2023, 25 mg/kg, 8h): 50.4575% and 35.7513% and 63.8583%
- % inhibition of DUSP6 vs control ([2]; Capan-2, Capan-2 #3_PHA 2023, 25 mg/kg, 24h): 0%
- % inhibition of DUSP6 vs control ([2]; Capan-2, Capan-2 #3_PHA 2023, 25 mg/kg, 48h): 0%
- % inhibition of DUSP6 vs control ([2]; Capan-2, Capan-2 #3_PHA 2023, 50 mg/kg, 4h): 52.3107% and 83.9934% and 66.044%
- % inhibition of DUSP6 vs control ([2]; Capan-2, Capan-2 #3_PHA 2023, 50 mg/kg, 24h): 0%
- % inhibition of DUSP6 vs control ([2]; Capan-2, Capan-2 #3_PHA 2023, 50 mg/kg, 48h): 0%
- % inhibition of DUSP6 vs control ([2]; Capan-2, Capan-2 #3_PHA 2023, 100 mg/kg, 2h): 67.4272% and 86.2096% and 68.6456%
- % inhibition of DUSP6 vs control ([2]; Capan-2, Capan-2 #3_PHA 2023, 100 mg/kg, 4h): 65.0894% and 44.0683% and 74.5323%
- % inhibition of DUSP6 vs control ([2]; Capan-2, Capan-2 #3_PHA 2023, 100 mg/kg, 8h): 70.4396% and 92.2693% and 83.0807%
- % inhibition of DUSP6 vs control ([2]; Capan-2, Capan-2 #3_PHA 2023, 100 mg/kg, 24h): 0%
- % inhibition of DUSP6 vs control ([2]; Capan-2, Capan-2 #3_PHA 2023, 100 mg/kg, 48h): 0%
- % inhibition of DUSP6 vs control ([2]; KP-4, KP-4 #5, 25 mg/kg, 4h): 76.482% and 79.4553% and 90.4818%
- % inhibition of DUSP6 vs control ([2]; KP-4, KP-4 #5, 25 mg/kg, 8h): 84.9604% and 85.3209% and 74.5306%
- % inhibition of DUSP6 vs control ([2]; KP-4, KP-4 #5, 25 mg/kg, 24h): 0%
- % inhibition of DUSP6 vs control ([2]; KP-4, KP-4 #5, 25 mg/kg, 48h): 0%
- CL/F [3, 6]: 48.5 mL/min/kg
- CL/F ([3]; NCI-H441 PKPD model, %CV 9.90): 48.5 mL/min/kg
- Imax ([4]; Mouse PKPD Model Parameters, Fixed): 1 unitless
- Kbt [4, 7]: 115 h⁻¹
- Ktb [4, 7]: 0.1 h⁻¹
- Ka [4, 8]: 0.6483 h⁻¹
- Kout [4, 8]: 2.386 h⁻¹
- IC50 ([4]; Mouse PKPD Model Parameters, NCI-H441 #8 Single and Repeat Dose fit simultaneously, read-out: IC50): 0.0423 µM
- V/F [4, 6]: 10.1992 L
- Kout ([4]; NCI-H441 PKPD model, %CV 7.43): 2.39 h⁻¹
- V/F ([4]; NCI-H441 PKPD model, %CV 14.60): 10.20 L
- Ka ([4]; NCI-H441 PKPD model, %CV 25.69): 0.65 h⁻¹
- IC50 ([4]; NCI-H441 PKPD model, %CV 60.16, read-out: IC50 (DUSP6 indirect response model)): 0.0423 µM
- Kpt [4, 9]: 115 h⁻¹
- Ktb [4, 9]: 0.1 h⁻¹
- fraction unbound [5]: 0.023
